Results reported in US11136328B2, “3,3-difluoropiperidine carbamate heterocyclic compounds as NR2B NMDA receptor antagonists” (Rugen Holdings (Cayman) Limited, priority 2015, dated 2021).

Columns and labels:
rats [1] = test: Forced Swim Test in rats; assay type: in vivo, Wistar rats
Text: (§1) The forced swim test (FST) also known at the behavioural despair test was used to evaluate antidepressant activity (Porsolt et al., 1977 Arch. Int. Pharmacodyn. 229: 327-336, Porsolt et al., 1977, Eur. J. Pharmacol. 47:379-391). Mice or rats that are forced to swim in a situation from which they cannot escape, rapidly become immobile. Drugs with antidepressant activity, such as imipramine, reduce the amount of time spent in the immobile state. Therefore, the amount of immobility time during a test conducted after drug administration represents a useful indicator of antidepressant activity (Lucki et al 2001 Psychopharmacology 155:315-322; Porsolt et al., 1977, Nature 266:730-732).
Male Wistar rats weighing 197-251 g were used for the rat test. Rats were evaluated according to a two-session procedure with a swimming session of 15 minutes on the first day of the experiment (Session 1) followed 24 hours later by a 5-minute swimming test (Session 2). […] Rats were placed in the water 24 h later for 5 minutes (Session 2) and the duration of immobility was measured.
(§2) Animals were observed by a blinded observer. […] The amount of time each animal spent in the immobile state (and the latency to the first bout of immobility) was recorded and used for statistical analysis of compound effect. […]

mice = test: Forced Swim Test in mice; assay type: in vivo
Text: as §1
Mice were evaluated in a single swimming test session of 6 minutes. Mice were placed in a transparent plastic cylinder 24 cm high with a diameter of 13 cm containing 10 cm of water with ambient temperature control generally from 22±2° C. Mice were placed in the water for 6 minutes and the duration of immobility during the last 4 minutes was measured.
as §2, with “effect. Group differences were evaluated by student's t-test (reference substance) or one-way ANOVA followed by post-hoc Dunnett's test (test substances).” for “effect.”
Male mice (strain NLMN) weighing 25-35 g were used for testing. […] The mice were videotaped for 6 minutes, and the last 4 minutes of video were analyzed by a blinded observer off-line. […] The amount of time each animal spent in the immobile state was recorded and used for statistical analysis of compound effect. Group differences were evaluated by student's t-test or one-way ANOVA followed by post-hoc Dunnett's test.
Mice were individually placed in a cylinder (height=24 cm; diameter=13 cm) containing 10 cm water (22° C.) from which they cannot escape. The mice were placed in the water for 6 minutes and the duration of immobility during the last 4 minutes was measured. […]

rats [2] = test: Electroconvulsive Threshold Test (ECT); assay type: in vivo
Experimental: (§3) Test compound E1-8.2 was administered as the free base.
Rats were administered ECS (rectangular current: 0.6 ms pulse width, 1.5 s duration, 200 Hz) via earclip electrodes connected to a constant current shock generator (Ugo Basile: type 7801). Test compounds were administered by oral gavage (p.o.) 1 hour before the test at a dose volume of 5 mL/kg.
Treatment groups of 20 rats were exposed to ECS as follows: The first animal was exposed to 30 mA of ECS. […] (increases of 5 mA) until the first tonic convulsion was observed. Once the first tonic convulsion was observed, the intensity of ECS was decreased by 2 mA for the next animal and then decreased or increased by 2 mA from animal to animal depending on whether the previous animal convulsed or not. If the first animal did convulse (tonic convulsions) within 5 seconds, animal no 2 is exposed to 25 mA, etc. . . . (decreases of 5 mA) until the absence of tonic convulsions was observed. At this point, the intensity of ECS was increased by 2 mA for the next animal and then decreased or increased by 2 mA from animal to animal depending on whether the previous animal convulsed or not. The minimum current intensity applied is 5 mA and the maximum 95 mA. The first 5 animals serve to approach threshold current and were not included in the analysis. The results are presented as the mean current intensity administered to the final 15 animals of a group. The test was performed blind. A positive percent change indicates an anticonvulsant effect. A negative percent change indicates a proconvulsant effect. The test substance was evaluated at 4 doses, typically using 0.5% dimethylsulfoxide, 4% hydroxypropyl-b-cyclodextrin water as a vehicle, and administered p.o. 60 minutes before ECS, and compared with a vehicle control group. Diazepam (16 mg/kg p.o.), administered under the same experimental conditions, was used as reference substance. The experiment included 6 groups. Data with the test substance was analyzed by comparing treated groups with vehicle control using one-way ANOVA followed by Dunnett's t tests.

hERG channel = hERG channel (Homo sapiens (Human), UniProt Q12809); test: hERG channel inhibition, whole cell patch clamp; assay type: cell-based; settings: 10 μM compound
Experimental: The assay was performed on hERG channel stably expressed in HEK293 cells. The cells were cultured at 37° C. in a humidified CO2 incubator in the growth medium consisting of DMEM, 10% fetal bovine serum and antibiotics. Prior to the assay, the cells were seeded onto a 12 mm PDL-coated glass coverslip and cultured in a 35 mm Petri dish. After 16 to 40 hr culture, the cover slip was transferred into the chamber of OctaFlow perfusion system (ALA Instrument) and under a constant flow of extracellular solution (140 mM NaCl, 4 mM KCl, 1 mM MgCl2, 2 mM CaCl2, 10 mM HEPES, 10 mM D-glucose, pH 7.35, osmolarity 290). Whole cell patch clamping was performed with a glass micropipette filled with intracellular solution (120 mM KCl, 1.75 mM MgCl2, 5.4 mM CaCl2, 10 mM HEPES, 10 mM EGTA, and 4 mM ATP-K2, PH 7.2, osmolarity 310). Giga-seal was maintained during the test. The voltage control and current measurement were carried out using Axon amplifier 700B, Digidata 1440A and CLAMPEX10 software (Molecular Devices). Whole-cell hERG currents were recorded following the Petroski protocol: the cell was held at −80 mV, and the voltage step jumped from −80 to 30 mV and stay for 2 sec with a 20 ms prepulse at −40 mV. After depolarization, the voltage was decreased to −40 mV and stay for 2 sec, and returned back to −80 mV. Test compound was applied by quartz capillary tubes tip (200 μm inner diameter), and the flow rate was controlled at 2-3 ml/min with OctaFlow perfusion system. Different concentrations of the compound were applied to the cells for 5 min and the hERG current was measured three times before, during and after compound treatment. The data were analyzed using Clampfit 10 software (Molecular Devices) to generate IC50 values.

CYP2D6 = CYP2D6 (Homo sapiens (Human), UniProt P10635); test: CYP P450 enzyme inhibition in pooled human liver microsomes; assay type: in vitro ADME; settings: 10 μM compound, pooled HLM
Experimental: Those CYP isoforms and their corresponding probe substrates are as follows: CYP1A2 (phenacetin, 30 μM), CYP2C9 (tolutamide, 100 μM), CYP2C19 (S-mephenytoin, 40 μM), CYP2D6 (dextromethorphan, 5 μM) and CYP3A4 (midazolam, 1 μM). All probe substrates were used at concentrations near or below their Kms. For experiment, a reaction mixture of test compound at 10 μM or in serial dilution, CYP probe substrate described above and 0.2 mg/mL pooled HLM in phosphate buffer, pH 7.4 in a final volume of 200 μL was pre-incubated at 37° C. for 10 minutes in triplicate. The reaction was initiated by addition of NADPH at final concentration of 1 mM. The reaction was terminated after 10 minutes (CYP1A2, CYP2D6 and CYP3A4) or 30 minutes (CYP2C9 and CYP2C19) by addition of 100 μL ice-cold acetonitrile with internal standard (IS). The samples were then centrifuged at 13,000 rpm and the supernatants were injected to LC-MS/MS (Agilent Technologies) to quantify the concentration of the specific metabolites of the probe substrates formed by individual CYP450 isoforms. The inhibition ratio is calculated as: (Mt−M0)/Mwater×100% in which Mt and M0 represent the concentrations of the specific probe substrate metabolite, which was formed by individual CYP450 isoform, at the beginning and end of the reaction in the presence of test compound; while Mwater represents the concentration of the specific metabolite at the end of the reaction in the absence of test compound. Test compound concentration-dependent response data experiments performed in triplicate.

rats [3] = test: Pentylenetetrazole (PTZ) Seizure Test; assay type: in vivo; settings: 10 mg/kg p.o. 30 min before PTZ 100 mg/kg s.c.
Experimental: Rats, placed in individual macrolon cages (25×19×13 cm), were injected with pentylenetetrazole (PTZ) (100 mg/kg s.c.). The occurrence and latency of clonic and tonic convulsions and death were noted over a 30 minute period. 15 rats were studied per group. The test was performed blind.
as §3
Compounds were evaluated typically using 0.5% dimethylsulfoxide, 4% hydroxypropyl-b-cyclodextrin water as a vehicle at 1 or more doses (e.g., 1, 3 and 10 mg/kg), administered p.o. 30 minutes before PTZ, and compared with a vehicle control group. Diazepam (16 mg/kg p.o.), administered 60 minutes before PTZ, was used as reference substance. The experiment was performed over 2 separate sub-experiments with N=7 to 8 animals per group and per sub-experiment. Quantitative data (latencies) with the test substance was analyzed by comparing treated groups with vehicle control using Kruskal-Wallis test followed by Mann-Whitney U test. Quantitative data with the reference substance was analyzed using Mann-Whitney U test. Quantal data (frequencies) was analyzed by comparing treated groups with vehicle control using Fisher's Exact Probability tests (*=p<0.05; **=p<0.01; ***=p<0.001).

Sequence of hERG channel (Q12809 whole entry): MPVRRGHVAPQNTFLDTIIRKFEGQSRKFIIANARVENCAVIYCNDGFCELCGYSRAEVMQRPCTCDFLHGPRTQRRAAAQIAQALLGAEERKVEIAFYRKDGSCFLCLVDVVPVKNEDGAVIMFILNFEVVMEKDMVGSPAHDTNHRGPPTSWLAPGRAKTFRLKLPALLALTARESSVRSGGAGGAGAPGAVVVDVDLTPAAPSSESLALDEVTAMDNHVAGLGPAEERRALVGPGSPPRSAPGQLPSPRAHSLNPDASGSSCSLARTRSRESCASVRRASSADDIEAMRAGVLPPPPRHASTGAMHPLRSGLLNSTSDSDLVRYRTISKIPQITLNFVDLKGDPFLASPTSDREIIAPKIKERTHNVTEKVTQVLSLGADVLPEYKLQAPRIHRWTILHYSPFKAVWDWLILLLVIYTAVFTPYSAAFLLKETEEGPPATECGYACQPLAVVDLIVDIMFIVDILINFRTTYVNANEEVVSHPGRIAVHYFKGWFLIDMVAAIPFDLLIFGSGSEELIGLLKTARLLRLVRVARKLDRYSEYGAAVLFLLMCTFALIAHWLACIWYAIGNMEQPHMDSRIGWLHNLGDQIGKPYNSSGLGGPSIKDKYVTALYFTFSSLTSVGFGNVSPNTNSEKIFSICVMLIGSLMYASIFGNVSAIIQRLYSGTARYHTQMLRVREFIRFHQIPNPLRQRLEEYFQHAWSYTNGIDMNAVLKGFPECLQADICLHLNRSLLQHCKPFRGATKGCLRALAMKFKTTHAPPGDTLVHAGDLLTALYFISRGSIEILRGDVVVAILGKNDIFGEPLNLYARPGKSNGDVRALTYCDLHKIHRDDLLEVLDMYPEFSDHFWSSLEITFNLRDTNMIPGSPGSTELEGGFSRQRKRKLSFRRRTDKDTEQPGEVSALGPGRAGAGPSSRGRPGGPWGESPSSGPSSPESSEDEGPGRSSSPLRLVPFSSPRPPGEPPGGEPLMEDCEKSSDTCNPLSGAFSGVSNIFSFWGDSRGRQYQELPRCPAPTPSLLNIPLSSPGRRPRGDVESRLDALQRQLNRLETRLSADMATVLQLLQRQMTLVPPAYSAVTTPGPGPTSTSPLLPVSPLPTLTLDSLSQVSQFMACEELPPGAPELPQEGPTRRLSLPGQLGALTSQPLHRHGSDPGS
Sequence of CYP2D6 (P10635 whole entry): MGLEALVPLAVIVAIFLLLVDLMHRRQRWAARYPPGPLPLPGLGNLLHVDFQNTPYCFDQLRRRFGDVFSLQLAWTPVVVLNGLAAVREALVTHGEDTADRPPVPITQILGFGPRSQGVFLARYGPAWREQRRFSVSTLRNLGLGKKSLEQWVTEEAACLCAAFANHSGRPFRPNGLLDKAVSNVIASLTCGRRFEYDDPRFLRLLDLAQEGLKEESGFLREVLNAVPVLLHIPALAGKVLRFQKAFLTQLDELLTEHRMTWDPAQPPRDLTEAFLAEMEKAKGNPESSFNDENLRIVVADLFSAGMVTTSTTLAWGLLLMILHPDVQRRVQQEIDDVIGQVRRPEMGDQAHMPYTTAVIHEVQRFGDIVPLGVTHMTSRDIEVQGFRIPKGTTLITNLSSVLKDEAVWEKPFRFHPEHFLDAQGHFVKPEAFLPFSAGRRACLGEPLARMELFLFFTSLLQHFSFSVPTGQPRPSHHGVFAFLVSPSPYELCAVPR

Structure (SMILES)	hERG @ 10 μM (%) (hERG channel)	CYP2D6 @ 10 μM (%) (CYP2D6)	further results
CN(C)CCCN1c2ccccc2CCc2ccccc21 [imipramine]			antidepressant activity (immobility time) (rats [1]; 32 mpk i.p. 3 times: 24 h, 4 h and 30 min before Session 2): showed the expected antidepressant activity; antidepressant activity (immobility time) (rats [1]; 64 mpk p.o. 3 times: 24 h, 4 h and 60 min before Session 2): showed the expected antidepressant activity; antidepressant activity (immobility time) (mice; 32 mpk i.p. once 30 min before the test): showed the expected antidepressant activity; antidepressant activity (immobility time) (mice; 64 mpk p.o. once 60 min before the test): showed the expected antidepressant activity; antidepressant activity (immobility time) (mice; 128 mpk p.o. once 60 minutes before the test on Day 7): showed the expected antidepressant activity
CN1C(=O)CN=C(c2ccccc2)c2cc(Cl)ccc21 [diazepam, reference compound]			activity on electroconvulsive threshold (rats [2]; 16 mpk p.o.): showed the expected anticonvulsant activity
Cn1c(=O)c2[nH]cnc2n(C)c1=O [theophylline, reference compound]			activity on electroconvulsive threshold (rats [2]; 128 mpk p.o.): showed the expected proconvulsant activity
Cc1ccc(COC(=O)N2CC[C@H](CNc3nc4ccccn4n3)C(F)(F)C2)cc1 [Compound E1-9.2, (+)-R-4-methylbenzyl 4-(([1,2,4]triazolo[1,5-a]pyridin-2-ylamino)methyl)-3,3-difluoropiperidine-1-carboxylate]	38	14	
Cc1ccc(COC(=O)N2CC[C@H](CNc3cnccn3)C(F)(F)C2)cc1 [Compound E1-21.2, R-4-methylbenzyl 3,3-difluoro-4-((pyrazin-2-ylamino)methyl)piperidine-1-carboxylate]	27	97	
Cc1ccc(COC(=O)N2CC[C@H](CNc3cnc(C)cn3)C(F)(F)C2)cc1 [Compound E1-21.26, R-4-methylbenzyl 3,3-difluoro-4-((5-methylpyrazin-2-ylamino)-methyl)piperidine-1-carboxylate]	39	32	activity on electroconvulsive threshold (rats [2]; 3 and 10 mpk p.o., mesylate salt): anticonvulsant activity; change in latency to death (rats [3]): +31%; change in number of deaths vs vehicle controls (rats [3]): −82%
Cc1ccc(COC(=O)N2CC[C@H](CNc3ncc4cn[nH]c4n3)C(F)(F)C2)cc1 [Compound E1-8.2, (+)-R-4-methylbenzyl-4-((1H-pyrazolo[3,4-d]pyrimidin-6-ylamino)methyl)-3,3-difluoropiperidine-1-carboxylate]	57	83	activity on electroconvulsive threshold (rats [2]; 0.5 and 2 mpk p.o., free base): modest proconvulsant activity; activity on electroconvulsive threshold (rats [2]; 10 and 20 mpk p.o., free base): anticonvulsant activity
O=C(OCc1ccc(F)cc1)N1CC[C@H](CNc2nccn3cnnc23)C(F)(F)C1 [Compound E1-1.4, R-4-fluorobenzyl 4-(([1,2,4]triazolo[4,3-a]pyrazin-8-ylamino)methyl)-3,3-difluoropiperidine-1-carboxylate]	11	19	
O=C(OCc1ccc(Cl)cc1)N1CC[C@H](CNc2nccn3cnnc23)C(F)(F)C1 [Compound E1-1.3, R-4-chlorobenzyl 4-(([1,2,4]triazolo[4,3-a]pyrazin-8-ylamino)methyl)-3,3-difluoropiperidine-1-carboxylate]	19	37	
Cc1ccc(COC(=O)N2CC[C@@H](CNc3nccn4cnnc34)C(F)(F)C2)cc1 [Compound E2-1.2, (−)-S-4-methylbenzyl 4-(([1,2,4]triazolo[4,3-a]pyrazin-8-ylamino)methyl)-3,3-difluoropiperidine-1-carboxylate]	22		
FC(F)(F)c1ccc(C(F)(F)CN2CCC(Nc3ncnc4[nH]ncc34)CC2)cc1 [LX-1, reference compound]		93	
Cc1ccc(COC(=O)N2CC[C@H](CNc3cncc4nncn34)C(F)(F)C2)cc1 [Compound E1-2.2, R-4-methylbenzyl 4-(([1,2,4]triazolo[4,3-a]pyrazin-5-ylamino)methyl)-3,3-difluoropiperidine-1-carboxylate]	32	18	
